Experimental data as given in patent publication US20220411388A1, “SUBSTITUTED IMIDAZOLE CARBOXAMIDES AND THEIR USE IN THE TREATMENT OF MEDICAL DISORDERS” (Bial - R&D Investments, S.A., priority 2019, published 2022).
Values after ≈ are worked out from the molar mass of the structure shown.

What was measured:
[1] = Compound solubility in water; assay type: physicochemical
acid ceramidase (hACR) = target: T1, acid ceramidase (hACR) (Homo sapiens, UniProt Q13510); test: Acid ceramidase inhibition, biochemical fluorescent assay with cell lysates overexpressing acid ceramidase (substrate Rbm14-12); settings: cell lysate, 1 hr preincubation at RT, pH 4.5, Rbm14-12 6.3 μM; read-out: IC50 hACR
T1 construct: expressed in transfected cells
T1 sequence (Q13510 22-395): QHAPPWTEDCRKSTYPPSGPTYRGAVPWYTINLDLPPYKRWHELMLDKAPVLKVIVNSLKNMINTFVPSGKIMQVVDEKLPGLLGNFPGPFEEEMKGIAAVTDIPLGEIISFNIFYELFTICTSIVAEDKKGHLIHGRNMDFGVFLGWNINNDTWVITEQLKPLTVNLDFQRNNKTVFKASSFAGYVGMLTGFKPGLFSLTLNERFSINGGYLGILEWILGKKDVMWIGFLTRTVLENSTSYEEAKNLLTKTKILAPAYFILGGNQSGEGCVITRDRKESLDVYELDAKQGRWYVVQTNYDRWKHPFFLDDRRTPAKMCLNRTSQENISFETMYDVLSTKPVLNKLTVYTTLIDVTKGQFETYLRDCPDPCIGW
Summary of the method: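 Enzyme source was lysate from cells overexpressing acid ceramidase, 10 µg protein per reaction. Compounds were preincubated 1 h at RT in 25 mM NaAc, 100 mM NaCl, pH 4.5.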

Compound | solubility [1] [µg/mL] | IC50 (acid ceramidase (hACR)) [nM] | Compound Solubility in Water [1] [µg/mL]
COc1nc(C)cn1C(=O)NCCCC1(C(F)(F)F)CC1 [Example 145, 2-Methoxy-4-methyl-N-(3-(1-(trifluoromethyl)cyclopropyl)propyl)-1H-imidazole-1-carboxamide] | 28 (≈ 91.7 µM) | < 200 | –
Cc1cn(C(=O)NCCC(C)C)c(Oc2ccccc2)n1 [Example 146, N-iso-Pentyl-4-methyl-2-phenoxy-1H-imidazole-1-carboxamide] | 19 (≈ 66.1 µM) | < 200 | –
Cc1cn(C(=O)NC2CC2)c(Oc2ccccc2)n1 [Example 147, N-Cyclopropyl-4-methyl-2-phenoxy-1H-imidazole-1-carboxamide] | 29 (≈ 113 µM) | < 200 | –
COc1nc(C)cn1C(=O)NC1CC1 [Example 148, N-Cyclopropyl-2-methoxy-4-methyl-1H-imidazole-1-carboxamide] | 23 (≈ 118 µM) | 200 to 1000 | –
Cc1cn(C(=O)NCCc2ccccc2)c(OC(C)C)n1 [Example 149, 2-iso-Propoxy-4-methyl-N-phenethyl-1H-imidazole-1-carboxamide] | 21 (≈ 73.1 µM) | < 200 | –
Cc1cnc(OC(C)C)n1C(=O)NCCc1ccccc1 [Example 150, 2-iso-Propoxy-5-methyl-N-phenethyl-1H-imidazole-1-carboxamide] | 5 (≈ 17.4 µM) | < 200 | –
COc1nc(C)cn1C(=O)NCCCOC(F)(F)F [Example 151, 2-Methoxy-4-methyl-N-(3-(trifluoromethoxy)-propyl)-1H-imidazole-1-carboxamide] | 30 (≈ 107 µM) | 200 to 1000 | –
COc1nc(C)cn1C(=O)NC1CCC(F)(F)CC1 [Example 152, N-(4,4-difluorocyclohexyl)-2-methoxy-4-methyl-1H-imidazole-1-carboxamide] | 30 (≈ 110 µM) | > 1000 | –
COc1nc(C)cn1C(=O)NC1CCCC(F)(F)C1 (stereo not shown) [Example 153, N-(3,3-difluorocyclohexyl)-2-methoxy-4-methyl-1H-imidazole-1-carboxamide] | 29 (≈ 106 µM) | > 1000 | –
COc1nc(C)cn1C(=O)NCCC1CCC(F)(F)C1 (stereo not shown) [Example 154, N-(2-(3,3-Difluorocyclopentyl)ethyl)-2-methoxy-4-methyl-1H-imidazole-1-carboxamide] | 30 (≈ 104 µM) | 200 to 1000 | –
COc1nc(C)cn1C(=O)NCCCCC1(C(F)(F)F)CC1 [Example 155, 2-Methoxy-4-methyl-N-(4-(1-(trifluoromethyl)-cyclopropyl)butyl)-1H-imidazole-1-carboxamide] | 22 (≈ 68.9 µM) | < 200 | –
COc1nc(C)cn1C(=O)NCCCCc1ccccc1 [Example 156, 2-Methoxy-4-methyl-N-(4-phenylbutyl)-1H-imidazole-1-carboxamide] | 23 (≈ 80 µM) | < 200 | –
COc1nc(-c2ccccc2)cn1C(=O)NC1CCC(F)(F)CC1 [Example 157, N-(4,4-Difluorocyclohexyl)-2-methoxy-4-phenyl-1H-imidazole-1-carboxamide] | 1 (≈ 2.98 µM) | 200 to 1000 | –
COc1nc(-c2ccccc2)cn1C(=O)NC1CCCC(F)(F)C1 (stereo not shown) [Example 158, N-(3,3-Difluorocyclohexyl)-2-methoxy-4-phenyl-1H-imidazole-1-carboxamide] | 1 (≈ 2.98 µM) | 200 to 1000 | –
Cc1cn(C(=O)NCCc2ccccc2)c(OCCN2CCOCC2)n1 [Example 159, 4-Methyl-2-(2-morpholinoethoxy)-N-phenethyl-1H-imidazole-1-carboxamide] | 35 (≈ 97.6 µM) | < 200 | –
COc1nc(C)cn1C(=O)NCCC(C)C [Example 160, N-iso-Pentyl-2-methoxy-4-methyl-1H-imidazole-1-carboxamide] | – | < 200 | 13
Cc1cn(C(=O)NC2CCC(F)(F)CC2)c(Oc2cccc(C3CN(C)C3)c2)n1 [Example 162, N-(4,4-Difluorocyclohexyl)-4-methyl-2-(3-(1-methylazetidin-3-yl)phenoxy)-1H-imidazole-1-carboxamide] | 17 (≈ 42 µM) | 200 to 1000 | –
Cc1cn(C(=O)NC2CCC(F)(F)CC2)c(Oc2ccc(C#N)cc2)n1 [Example 163, 2-(4-Cyanophenoxy)-N-(4,4-difluorocyclohexyl)-4-methyl-1H-imidazole-1-carboxamide] | 13 (≈ 36.1 µM) | < 200 | –
Cc1cn(C(=O)NC2CCC(F)(F)CC2)c(Oc2cccc(C#N)c2)n1 [Example 164, 2-(3-Cyanophenoxy)-N-(4,4-difluorocyclohexyl)-4-methyl-1H-imidazole-1-carboxamide] | 8 (≈ 22.2 µM) | < 200 | –

Compound | solubility [1] [µg/mL] | IC50 (acid ceramidase (hACR)) [nM] | Compound Solubility in Water [1] [µg/mL]
Cc1cn(C(=O)NC2CCC(F)(F)CC2)c(Oc2ccc(N3CCOCC3)cc2)n1 [Example 165, N-(4,4-Difluorocyclohexyl)-4-methyl-2-(4-morpholinophenoxy)-1H-imidazole-1-carboxamide] | 21 (≈ 49.9 µM) | < 200 | –
COc1nc(C)cn1C(=O)NCCC1CC(F)(F)C1 [Example 166, N-(2-(3,3-Difluorocyclobutyl)ethyl)-2-methoxy-4-methyl-1H-imidazole-1-carboxamide] | 30 (≈ 110 µM) | 200 to 1000 | –
COc1nc(C)cn1C(=O)NCCC1CCCC1(F)F (stereo not shown) [Example 167, N-(2-(2,2-Difluorocyclopentyl)ethyl)-2-methoxy-4-methyl-1H-imidazole-1-carboxamide] | 32 (≈ 111 µM) | < 200 | –
COc1nc(Cl)cn1C(=O)NCCCC(F)(F)F [Example 168, 4-Chloro-2-methoxy-N-(4,4,4-trifluorobutyl)-1H-imidazole-1-carboxamide] | 34 (≈ 119 µM) | < 200 | –
COc1nc(C)c(C)n1C(=O)NCCc1ccccc1 [Example 170, 2-Methoxy-4,5-dimethyl-N-phenethyl-1H-imidazole-1-carboxamide] | 10 (≈ 36.6 µM) | < 200 | –
Cc1cn(C(=O)NCCCC(F)(F)F)c(Oc2ccccc2)n1 [Example 171, 4-Methyl-2-phenoxy-N-(4,4,4-trifluorobutyl)-1H-imidazole-1-carboxamide] | 24 (≈ 73.3 µM) | < 200 | –
Cc1cn(C(=O)NC2CCC(F)(F)CC2)c(Oc2ccccc2)n1 [Example 172, N-(4,4-Difluorocyclohexyl)-4-methyl-2-phenoxy-1H-imidazole-1-carboxamide] | 4 (≈ 11.9 µM) | < 200 | –
CN1CCC(c2cn(C(=O)NCCCC3(C(F)(F)F)CC3)cn2)CC1 [Example 174, 4-(1-Methylpiperidin-4-yl)-N-(3-(1-(trifluoromethyl)cyclopropyl)propyl)-1H-imidazole-1-carboxamide] | 25 (≈ 69.8 µM) | < 200 | –
O=C(NCCCC1(C(F)(F)F)CC1)n1cnc(-c2cccnc2N2CCCCC2)c1 [Example 175, 4-(2-(Piperidin-1-yl)pyridin-3-yl)-N-(3-(1-(trifluoromethyl)cyclopropyl)propyl)-1H-imidazole-1-carboxamide] | 1 (≈ 2.37 µM) | < 200 | –
O=C(NCCCC1(C(F)(F)F)CC1)n1ccnc1Oc1ccccc1 [Example 177, 2-Phenoxy-N-(3-(1-(trifluoromethyl)cyclopropyl)propyl)-1H-imidazole-1-carboxamide] | 8 (≈ 22.6 µM) | < 200 | –
O=C(NCCCC(F)(F)F)n1ccnc1Oc1ccccc1 [Example 178, 2-Phenoxy-N-(4,4,4-trifluorobutyl)-1H-imidazole-1-carboxamide] | 32 (≈ 102 µM) | < 200 | –
COc1nc(C)cn1C(=O)NCCCn1ccc(C(C)(C)C)n1 [Example 179, N-(3-(3-(tert-Butyl)-1H-pyrazol-1-yl)propyl)-2-methoxy-4-methyl-1H-imidazole-1-carboxamide] | 22 (≈ 68.9 µM) | < 200 | –
COc1nc(C)cn1C(=O)NCC#CC(C)C [Example 180, 2-Methoxy-4-methyl-N-(4-methylpent-2-yn-1-yl)-1H-imidazole-1-carboxamide] | 17 (≈ 72.3 µM) | < 200 | –
COc1nc(C)cn1C(=O)NCC#CCc1ccccc1 [Example 181, 2-Methoxy-4-methyl-N-(4-phenylbut-2-yn-1-yl)-1H-imidazole-1-carboxamide] | 22 (≈ 77.6 µM) | < 200 | –
COc1nc(C)cn1C(=O)NCC#CCC1(C(F)(F)F)CC1 [Example 182, 2-Methoxy-4-methyl-N-(4-(1-(trifluoromethyl)cyclopropyl)but-2-ynyl)-1H-imidazole-1-carboxamide] | 25 (≈ 79.3 µM) | < 200 | –
Cc1cn(C(=O)NC2CC2)c(OC2CCC(F)(F)CC2)n1 [Example 183, N-Cyclopropyl-2-(4,4-difluorocyclohexyloxy)-4-methyl-1H-imidazole-1-carboxamide] | 31 (≈ 104 µM) | 200 to 1000 | –
COc1nc(Br)cn1C(=O)NCCCC(F)(F)F [Example 184, 4-Bromo-2-methoxy-N-(4,4,4-trifluorobutyl)-1H-imidazole-1-carboxamide] | 31 (≈ 93.9 µM) | < 200 | –
COc1nc(Cl)cn1C(=O)NCCC1CCCC1(F)F (stereo not shown) [Example 185, 4-Chloro-N-(2-(2,2-difluorocyclopentyl)ethyl)-2-methoxy-1H-imidazole-1-carboxamide] | 29 (≈ 94.2 µM) | < 200 | –
CC(C)Oc1nc(Cl)cn1C(=O)NCCCC(F)(F)F [Example 187, 4-Chloro-2-isopropoxy-N-(4,4,4-trifluorobutyl)-1H-imidazole-1-carboxamide] | 29 (≈ 92.4 µM) | 200 to 1000 | –
